Experimental data as given in patent US11603355B2, “Charged ion channel blockers and methods for use” (Nocion Therapeutics, Inc., priority 2019, dated 2023).
Counter-ions that a name gives are not always drawn.

The compounds below were run against T1, NaV1.7 (Homo sapiens, UniProt Q15858) (assay: Manual patch clamp, internal block of NaV1.7 current). Details: % inhibition at 3 μM test concentration, compound in internal solution, HEK293 cells.
T1 construct: expressed in transfected cells; host or cells: HEK293 (tetracycline-inducible)
T1 sequence (Q15858 whole entry): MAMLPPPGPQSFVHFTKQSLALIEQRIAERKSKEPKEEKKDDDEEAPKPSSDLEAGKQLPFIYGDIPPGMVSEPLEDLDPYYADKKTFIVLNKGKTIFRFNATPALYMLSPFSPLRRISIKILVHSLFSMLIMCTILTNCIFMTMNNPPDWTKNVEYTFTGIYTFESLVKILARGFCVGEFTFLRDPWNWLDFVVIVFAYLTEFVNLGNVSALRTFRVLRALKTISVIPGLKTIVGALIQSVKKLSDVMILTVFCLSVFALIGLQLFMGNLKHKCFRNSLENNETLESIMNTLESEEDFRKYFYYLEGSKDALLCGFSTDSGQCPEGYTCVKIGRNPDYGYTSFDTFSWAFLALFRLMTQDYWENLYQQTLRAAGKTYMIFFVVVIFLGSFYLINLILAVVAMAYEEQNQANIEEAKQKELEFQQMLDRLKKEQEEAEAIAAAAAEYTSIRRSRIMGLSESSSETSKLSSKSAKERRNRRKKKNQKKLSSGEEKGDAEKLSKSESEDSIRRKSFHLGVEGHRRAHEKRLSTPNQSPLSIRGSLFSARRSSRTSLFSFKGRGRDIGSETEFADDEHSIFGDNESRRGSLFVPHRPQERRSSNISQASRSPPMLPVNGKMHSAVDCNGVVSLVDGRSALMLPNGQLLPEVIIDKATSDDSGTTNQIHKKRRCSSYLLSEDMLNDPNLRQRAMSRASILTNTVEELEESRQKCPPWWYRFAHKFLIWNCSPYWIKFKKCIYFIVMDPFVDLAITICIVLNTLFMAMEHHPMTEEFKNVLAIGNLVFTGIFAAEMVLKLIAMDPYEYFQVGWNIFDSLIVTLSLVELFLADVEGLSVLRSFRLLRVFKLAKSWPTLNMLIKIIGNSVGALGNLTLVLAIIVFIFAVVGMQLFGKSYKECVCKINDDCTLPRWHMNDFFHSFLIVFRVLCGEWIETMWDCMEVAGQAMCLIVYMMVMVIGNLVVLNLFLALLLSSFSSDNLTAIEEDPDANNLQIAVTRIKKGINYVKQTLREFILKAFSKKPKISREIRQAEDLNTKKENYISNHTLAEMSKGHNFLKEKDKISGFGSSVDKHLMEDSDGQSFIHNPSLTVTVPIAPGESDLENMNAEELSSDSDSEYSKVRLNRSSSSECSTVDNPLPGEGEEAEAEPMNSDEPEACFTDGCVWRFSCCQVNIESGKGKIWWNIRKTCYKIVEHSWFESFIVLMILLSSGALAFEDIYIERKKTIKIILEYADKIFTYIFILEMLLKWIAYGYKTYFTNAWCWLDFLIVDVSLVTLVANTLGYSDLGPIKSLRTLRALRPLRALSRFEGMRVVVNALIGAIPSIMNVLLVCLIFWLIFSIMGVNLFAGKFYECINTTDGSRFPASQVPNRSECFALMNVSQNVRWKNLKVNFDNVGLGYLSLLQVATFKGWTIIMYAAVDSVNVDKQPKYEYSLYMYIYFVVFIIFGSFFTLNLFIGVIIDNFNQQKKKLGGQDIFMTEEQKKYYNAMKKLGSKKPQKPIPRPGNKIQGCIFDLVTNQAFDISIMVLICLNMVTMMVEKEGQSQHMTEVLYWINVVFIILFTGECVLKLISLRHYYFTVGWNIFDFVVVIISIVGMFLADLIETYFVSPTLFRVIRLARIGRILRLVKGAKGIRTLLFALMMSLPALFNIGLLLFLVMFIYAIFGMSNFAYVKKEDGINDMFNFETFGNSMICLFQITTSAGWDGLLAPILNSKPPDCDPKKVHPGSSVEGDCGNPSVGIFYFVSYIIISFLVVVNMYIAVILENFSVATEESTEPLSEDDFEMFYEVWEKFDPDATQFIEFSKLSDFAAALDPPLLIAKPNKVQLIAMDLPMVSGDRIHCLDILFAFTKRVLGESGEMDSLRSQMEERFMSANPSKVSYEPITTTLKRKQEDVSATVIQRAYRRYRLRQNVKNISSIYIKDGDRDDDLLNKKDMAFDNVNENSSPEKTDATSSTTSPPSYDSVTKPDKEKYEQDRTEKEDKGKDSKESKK
Type: cell-based
Outline: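 Whole-cell recordings at room temperature in tetracycline-induced HEK293 cells, compound in CsCl internal solution (pH 7.2), held at −100 mV with 10 ms steps to −20 mV. Four 30 s 5 Hz trains after 5 min baseline; fraction of peak inward current remaining computed as Itest/Ibaseline.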

| Compound | Nav1.7 Intracellular Inhibition |
| --- | --- |
| 1-benzyl-1-(2-((2-(dimethylcarbamoyl)-6-methylphenyl) amino)-2-oxoethyl) azepan-1-ium bromide [Compound 81A] | +++ (“+++” 90-70%) |

Same assay, conditions: % inhibition at 3 μM test concentration, compound in internal solution, HEK293 cells, read-out: Nav1.7 Intracellular Inhibition

| inhibition at 3 µM [%] | Compound |
| --- | --- |
| 70 to 90 | Cc1cccc(C)c1N1CCC([N+]2(Cc3ccccc3)CCCCC2)C1=O.[Br-] (centres unmarked) [Compound 89A, 1-benzyl-1-(1-(2,6-dimethylphenyl)-2-oxopyrrolidin-3-yl)piperidin-1-ium bromide] |
| > 90 | Cc1cccc(C#N)c1NC(=O)C[N+]1(Cc2ccccc2)CCCCCC1.[Br-] [Compound 72A] |
| > 90 | Cc1cccc(-c2ccccc2)c1NC(=O)C[N+]1(Cc2ccccc2)CCCCCC1.[Br-] [Compound 76A] |
| 70 to 90 | COc1cccc(C)c1NC(=O)C[N+]1(Cc2ccccc2)CCCCCC1 [Compound 71A] |
| 70 to 90 | Cc1cccc(C(C)C)c1NC(=O)C[N+]1(Cc2ccccc2)CCCCCC1.[Br-] [Compound 74A] |
| 70 to 90 | Cc1cccc(C)c1C(=O)OCC[N+]1(Cc2ccccc2)CCCCCC1.[Br-] [Compound 82A, 1-benzyl-1-(2-((2,6-dimethylbenzoyl)oxy)ethyl) azepan-1-ium bromide] |
| > 90 | Cc1cccc(C)c1N1CCC([N+]2(Cc3ccccc3)CCCCCCC2)C1=O.[Br-] (centres unmarked) [Compound 90A] |
| > 90 | CCCOC(=O)N1CCC[N+](CC(=O)Nc2c(C)cccc2C)(Cc2ccccc2)CC1.[Br-] (centres unmarked) [Compound 68A, 1-benzyl-1-(2-((2,6-dimethylphenyl)amino)-2-oxoethyl)-4-(propoxycarbonyl)-1,4-diazepan-1-ium bromide] |
| > 90 | CCC(=O)Oc1cccc(C)c1NC(=O)C[N+]1(Cc2ccccc2)CCCCCC1.[Br-] [Compound 80A, 1-benzyl-1-(2-((2-methyl-6-(propionyloxy)phenyl)amino)-2-oxoethyl) azepan-1-ium bromide] |
| 40 to 70 | Cc1cccc(C)c1N1CCCC([N+]2(Cc3ccccc3)CCCC2)C1=O.[Br-] (centres unmarked) [Compound 91A, 1-benzyl-1-(1-(2,6-dimethylphenyl)-2-oxopiperidin-3-yl) pyrrolidin-1-ium bromide] |
| 70 to 90 | CCOc1cccc(C)c1NC(=O)C[N+]1(Cc2ccccc2)CCCCCC1.[Br-] [Compound 77A] |
| > 90 | Cc1cccc(F)c1NC(=O)C[N+]1(Cc2ccccc2)CCCCCC1.[Br-] [Compound 69A, 1-benzyl-1-(2-((2-fluoro-6-methylphenyl)amino)-2-oxoethyl)azepan-1-ium bromide] |
| > 90 | CCCc1cccc(C)c1NC(=O)C[N+]1(Cc2ccccc2)CCCCCC1.[Br-] [Compound 75A] |
| > 90 | CC[N+](CC)(CCCc1ccccc1)CC(=O)Nc1c(C)cccc1C.[Br-] [Compound 86A, N-(2-((2,6-dimethylphenyl)amino)-2-oxoethyl)-N, N-diethyl-3-phenylpropan-1-aminium bromide] |

Further lines, the compound ahead of its results:

| Compound | inhibition at 3 µM [%] |
| --- | --- |
| CCOC(=O)C1CCC[N+](CC(=O)Nc2c(C)cccc2C)(Cc2ccccc2)C1.[Br-] (centres unmarked) [Compound 45A, 1-benzyl-1-(2-((2,6-dimethylphenyl)amino)-2-oxoethyl)-3-(ethoxycarbonyl) piperidin-1-ium bromide] | 70 to 90 |
| CCC(=O)OC1CCC[N+](CC(=O)Nc2c(C)cccc2C)(Cc2ccccc2)C1.[Br-] (centres unmarked) [Compound 52A, 1-benzyl-1-(2-((2,6-dimethylphenyl)amino)-2-oxoethyl)-3-(propionyloxy) piperidin-1-ium bromide] | > 90 |
| Cc1cccc(C)c1NC(=O)C[N+]1(Cc2ccccc2)CCCC(C(N)=O)C1.[Br-] (mixture of isomers) [Compound 53A, 1-benzyl-3-carbamoyl-1-(2-((2,6-dimethylphenyl)amino)-2-oxoethyl) piperidin-1-ium bromide] | 70 to 90 |
| Cc1cccc(C)c1N(C)C(=O)C[N+]1(Cc2ccccc2)CCCCCC1 [Compound 38A, 1-benzyl-1-(2-((2,6-dimethylphenyl) (methyl)amino)-2-oxoethyl) azepan-1-ium formate] | 70 to 90 |
| Cc1cccc(C)c1NC(=O)C[N+]1(Cc2ccccc2)CCCC(C(=O)OC(C)C)C1 (mixture of isomers) [Compound 46A, 1-benzyl-1-(2-((2,6-dimethylphenyl)amino)-2-oxoethyl)-3-(isopropoxycarbonyl) piperidin-1-ium trifluoroacetate salt] | > 90 |
| CCNC(=O)C1CCC[N+](CC(=O)Nc2c(C)cccc2C)(Cc2ccccc2)C1.[Br-] (centres unmarked) [Compound 54A, 1-benzyl-1-(2-((2,6-dimethylphenyl)amino)-2-oxoethyl)-3-(ethylcarbamoyl) piperidin-1-ium bromide] | > 90 |
| CCCNC(=O)C1CCC[N+](CC(=O)Nc2c(C)cccc2C)(Cc2ccccc2)C1 (centres unmarked) [Compound 57A] | 70 to 90 |
| Cc1cccc(C)c1NC(=O)C[N+]1(Cc2ccccc2)CCCC(C(=O)N(C)C)C1.[Br-] (centres unmarked) [Compound 65A] | > 90 |
| COC(=O)C1CC[N+](CC(=O)Nc2c(C)cccc2C)(Cc2ccccc2)CC1.[Br-] (centres unmarked) [Compound 44A, 1-benzyl-1-(2-((2,6-dimethylphenyl)amino)-2-oxoethyl)-4-(methoxycarbonyl) piperidin-1-ium bromide] | > 90 |
| Cc1cccc(C)c1NC(=O)C[N+]1(Cc2ccccc2)CCCC(F)(F)C1.[Br-] (centres unmarked) [Compound 32A, 1-benzyl-1-(2-((2,6-dimethylphenyl)amino)-2-oxoethyl)-3,3-difluoropiperidin-1-ium bromide] | > 90 |
| COC(=O)c1ccccc1C[N+]1(CC(=O)Nc2c(C)cccc2C)CCCCC1.[Br-] [Compound 37A, 1-(2-((2,6-dimethylphenyl)amino)-2-oxoethyl)-1-(2-(methoxycarbonyl)benzyl) piperidin-1-ium bromide] | 70 to 90 |
| COC(=O)c1cccc(C[N+]2(CC(=O)Nc3c(C)cccc3C)CCCCC2)c1.[Br-] [Compound 35A, 1-(2-((2,6-dimethylphenyl)amino)-2-oxoethyl)-1-(3-(methoxycarbonyl)benzyl) piperidin-1-ium bromide] | > 90 |
| Cc1cccc(C)c1NC(=O)C[N+]1(Cc2ccccc2)CCCC(C(=O)N2CCCC2)C1 (centres unmarked) [Compound 62A] | > 90 |
| CNC(=O)C1CCC[N+](CC(=O)Nc2c(C)cccc2C)(Cc2ccccc2)C1 (centres unmarked) [Compound 55A] | 70 to 90 |
| Cc1cccc(C)c1NC(=O)C[N+]1(Cc2ccccc2)CCCC(C(=O)N2CCCCC2)C1 (centres unmarked) [Compound 63A] | > 90 |
| [2H]c1c([2H])c([2H])c(C[N+]2(CC(=O)Nc3c(C)cccc3C)CCCCCC2)c([2H])c1[2H].[Cl-] [Compound 33A, 1-(2-((2,6-dimethylphenyl)amino)-2-oxoethyl)-1-((phenyl-d5)methyl) azepan-1-ium chloride] | > 90 |
| COC(=O)c1ccc(C[N+]2(CC(=O)Nc3c(C)cccc3C)CCCCC2)cc1.[Br-] [Compound 36A, 1-(2-((2,6-dimethylphenyl)amino)-2-oxoethyl)-1-(4-(methoxycarbonyl)benzyl) piperidin-1-ium bromide] | 70 to 90 |
| CCN(CC)C(=O)C1CCC[N+](CC(=O)Nc2c(C)cccc2C)(Cc2ccccc2)C1 (centres unmarked) [Compound 66A] | 70 to 90 |
| Cc1cccc(C)c1NC(=O)C[N+]1(Cc2ccccc2)CCCC(C(=O)NC(C)C)C1 (centres unmarked) [Compound 56A] | 40 to 70 |
| CCCOC(=O)C1CCC[N+](CC(=O)Nc2c(C)cccc2C)(Cc2ccccc2)C1.[Br-] (centres unmarked) [Compound 47A, 1-benzyl-1-(2-((2,6-dimethylphenyl)amino)-2-oxoethyl)-3-(propoxycarbonyl) piperidin-1-ium bromide] | > 90 |

Same assay, conditions: % inhibition at 10 μM test concentration, compound in internal solution, HEK293 cells, read-out: Nav1.7 Intracellular Inhibition

| inhibition at 10 µM [%] | Compound |
| --- | --- |
| 70 to 95 | COC(=O)c1ccccc1C[N+]1(CC(=O)Nc2c(C)cccc2C)CCCCC1.[Br-] [Compound 37A, 1-(2-((2,6-dimethylphenyl)amino)-2-oxoethyl)-1-(2-(methoxycarbonyl)benzyl) piperidin-1-ium bromide] |
| 70 to 95 | CCCCNc1ccc(NC(=O)C[N+]2(Cc3ccccc3)CCCCCC2)cc1.O=C[O-] [Compound 41A, 1-benzyl-1-(2-((4-(butylamino)phenyl)amino)-2-oxoethyl) azepan-1-ium formate] |
| > 95 | CC[N+](CC)(CCCc1ccccc1)CC(=O)Nc1c(C)cccc1C.[Br-] [Compound 86A, N-(2-((2,6-dimethylphenyl)amino)-2-oxoethyl)-N, N-diethyl-3-phenylpropan-1-aminium bromide] |
